Assay results taken from PMC7424068, “Design, Synthesis, and Biological Evaluation of Novel Thiazolidinone-Containing Quinoxaline-1,4-di-N-oxides as Antimycobacterial and Antifungal Agents” (Frontiers in Chemistry, 2020).
Converted amounts (≈) assume the structure as drawn. Read-outs that look alike come from different tables or passages of the source.

Legend:
[1] = system: C. albicans (ATCC90028); assay: Antifungal activity, broth microdilution; format: cell-based, Candida albicans
Experimental: (§1) All synthesized compounds and the positive control drugs amphotericin B and ketoconazole were tested for their in vitro antifungal activity. Antifungal activity was evaluated against four fungi, C. albicans (ATCC90028), C. tropicalis (ATCC7349), A. fumigatus (3.5352), and C. neoformans (2.3201), by broth microdilution according to the protocols from the NCCLS (Jiang et al., [2014]). Briefly, all tested compounds were dissolved in DMSO, and the solutions were diluted with fresh broth medium. All of the fungi-seeded broth (1 × 10^5 colony-forming units [CFU]/mL) were prepared in RPMI 1640 medium and added into the serially diluted drug solution. The tubes were incubated at 28°C, and the MIC (μg/mL) was recorded 72–96 h post-incubation. Broth control (without fungi), growth controls (with fungi and without drug), solvent (DMSO) control, and drug control for both test drugs and standard drugs were set under identical conditions. The minimum drug concentration in the tubes in which no apparent growth of the organism was observed represented the MIC of the compounds.

[2] = system: A. fumigatus (3.5352); assay: Antifungal activity, broth microdilution; format: cell-based; conditions: Aspergillus fumigatus
Experimental: as §1

[3] = system: C. neoformans (2.3201); assay: Antifungal activity, broth microdilution; format: cell-based; conditions: Cryptococcus neoformans
Experimental: as §1

[4] = system: C. tropicalis (ATCC7349); assay: Antifungal activity, broth microdilution; format: cell-based; conditions: Candida tropicalis
Experimental: as §1

[5] = system: Candida albicans, Candida tropicalis, Aspergillus fumigatus, and Cryptococcus neoformans; assay: Antifungal activity, broth microdilution, stated for the four fungi together; format: cell-based; conditions: read-out: MIC (antifungal, over the four fungi)
Experimental: as §1

[6] = system: Mtb H37Rv (ATCC27294); assay: Antimycobacterial activity, microplate Alamar blue assay (MABA); format: cell-based, Mycobacterium tuberculosis; conditions: for antimycobacterial activity (in words): Mtb strain H37Rv; for MIC: Mycobacterium tuberculosis, Mtb H37Rv
[7] = system: VERO cell line; assay: Cytotoxicity MTT assay; format: cell-based; conditions: Chlorocebus sabaeus, cytotoxicity in VERO cells, 72 h
Experimental: VERO cells (2 × 10^4 cells) were seeded into 96-well plates and incubated for 12 h. Serial dilutions of the compounds were mixed with the cell suspension in the plates. Both treated cells and blank and solvent controls were incubated for 72 h, followed by incubation with MTT (0.5 mg/mL) for another 4 h. The microplates were measured at 570 nm using a multimode reader (Infinite M200, Tecan). The percentage of viable cells was calculated as the mean with respect to the controls set to 100%. Triplicate wells were analyzed for each concentration. IC50 was defined as the concentration that reduced the viable cells by 50% compared to the untreated control cells. It was considered significant when the SI was more than 10.

[8] = system: M. tuberculosis (Mtb) strain H37Rv; parameters: method as in Ortega et al., 2001; Vicente et al., 2009; conditions: ref Ortega et al., 2001, Vicente et al., 2009; cited from earlier work
[9] = system: TB-infected macrophage model; assay: Macrophage assay (TB-infected macrophage model); format: cell-based, Mycobacterium tuberculosis; conditions: for EC90: Mycobacterium tuberculosis, Macrophage, 168 h, concentration causing 90% reduction in residual mycobacterial growth after 7 days; for EC99: concentration causing 99% reduction in residual mycobacterial growth after 7 days
[10] = Candida albicans ATCC 90028, read-out: MIC
[11] = A. fumigatus 3.5352, read-out: MIC
[12] = C. neoformans 2.3201, read-out: MIC
[13] = C. tropicalis ATCC 7349, read-out: MIC
[14] = C. albicans, C. tropicalis, A. fumigatus, C. neoformans together
[15] = repeated in Table 5 for the 3D-QSAR models, read-out: MIC
[16] = experimental pMIC, Table 5, read-out: pMIC exp (converted)

Compound `C[C@@H]1[C@H](O)[C@@H](C)/C=C/C=C/C=C/C=C/C=C/C=C/C=C/[C@H](O[C@@H]2O[C@H](C)[C@@H](O)[C@H](N)[C@@H]2O)C[C@@H]2O[C@](O)(C[C@@H](O)C[C@@H](O)[C@H](O)CC[C@@H](O)C[C@@H](O)CC(=O)O[C@H]1C)C[C@H](O)[C@H]2C(=O)O` [AMB, Amphotericin b, reference compound] has an MIC [1, 10] of 1 µg/mL (≈ 1.08 µM), an MIC [2, 11] of 0.5 µg/mL (≈ 0.541 µM) and an MIC [3, 12] of 0.5 µg/mL (≈ 0.541 µM). It also gave an MIC [4, 13] of 2 µg/mL (≈ 2.16 µM) and an MIC [5, 14] of 0.25 to 2 µg/mL (≈ 0.271 to 2.16 µM).
With `O=C1CSC(c2c[n+]([O-])c3ccccc3[n+]2[O-])N1c1ccc(Cl)cc1` (stereo not drawn) [2e, 2-(3′-P-chlorophenyl-4′(5H)-thiazolidinone)-quinoxaline-1,4-di-N-oxide] the “antimycobacterial activity (in words)” value [6] was “good antimycobacterial activity”, the MIC ([6]; MABA assay, read-out: MIC) was ≤ 3.13 µg/mL and the MIC [6, 15] was 3.13 µg/mL. The MIC [6, 16] was 8.39 µM, the IC50 [7] was 116 µg/mL (≈ 310 µM) and the MIC [1, 10] was 8 µg/mL (≈ 21.4 µM). It also gave an MIC [2, 11] of 32 µg/mL (≈ 85.6 µM), an MIC [3, 12] of 16 µg/mL (≈ 42.8 µM) and an MIC [4, 13] of 8 µg/mL (≈ 21.4 µM). The melting point was 249 to 252 °C.
In the case of `Cc1ccc2c(c1)[n+]([O-])c(C#N)c(-c1ccc(F)cc1)[n+]2[O-]` [7-methyl-3-(4′-fluoro)phenylquinoxaline-2-carbonitrile-1,4-di-N-oxide], the MIC [8] is given as < 0.2 µg/mL.
With `CC(=O)N1CCN(c2ccc(OCC3COC(Cn4ccnc4)(c4ccc(Cl)cc4Cl)O3)cc2)CC1` (stereo not drawn) [KCZ, Ketoconazole, reference compound] the MIC ([1]; Candida albicans) was 0.25 µg/mL (≈ 0.47 µM), the MIC [2] was 0.5 µg/mL (≈ 0.941 µM) and the MIC [3] was 0.25 µg/mL (≈ 0.47 µM). The MIC [4] was 0.5 µg/mL (≈ 0.941 µM) and the MIC [5] was 0.25 to 2 µg/mL (≈ 0.47 to 3.76 µM).
With `O=C1CSC(c2c[n+]([O-])c3ccc(F)cc3[n+]2[O-])N1c1ccc(F)cc1` (stereo not drawn) [2t, 7-F-2-(3′-P-fluorophenyl-4′(5H)-thiazolidinone)-quinoxaline-1,4-di-N-oxide] the “antimycobacterial activity (in words)” value [6] was “good antimycobacterial activity”, the MIC ([6]; MABA assay, read-out: MIC) was 1.56 µg/mL and the MIC [6, 15] was 1.56 µg/mL. The MIC [6, 16] was 4.16 µM, the IC50 [7] was 101 µg/mL (≈ 269 µM) and the EC90 [9] was 1.66 µg/mL (≈ 4.42 µM). It also gave an EC99 [9] of 5.25 µg/mL, an MIC [1, 10] of 4 µg/mL (≈ 10.7 µM) and an MIC [2, 11] of 4 µg/mL (≈ 10.7 µM). It also gave an MIC [3, 12] of 4 µg/mL (≈ 10.7 µM), an MIC [4, 13] of 2 µg/mL (≈ 5.33 µM) and an MIC [5, 14] of 2 to 4 µg/mL (≈ 5.33 to 10.7 µM). It also gave a melting point of 250 to 253 °C.
With `Cc1ccc2c(c1)[n+]([O-])c(C1SCC(=O)N1c1ccc(Cl)cc1)c[n+]2[O-]` (stereo not drawn) [2k, 7-CH3-2-(3′-P-chlorophenyl-4′(5H)-thiazolidinone)-quinoxaline-1,4-di-N-oxide] the “antimycobacterial activity (in words)” value [6] was “good antimycobacterial activity”, the MIC ([6]; MABA assay, read-out: MIC) was ≤ 3.13 µg/mL and the MIC [6, 15] was 3.13 µg/mL. It also gave an MIC [6, 16] of 8.09 µM, an IC50 [7] of 102 µg/mL (≈ 264 µM) and an MIC [1, 10] of 32 µg/mL (≈ 82.5 µM). The MIC [2, 11] was 32 µg/mL (≈ 82.5 µM), the MIC [3, 12] was 32 µg/mL (≈ 82.5 µM) and the MIC [4, 13] was 16 µg/mL (≈ 41.3 µM). It also gave a melting point of 244 to 248 °C.
For `O=C1CSC(c2c[n+]([O-])c3ccccc3[n+]2[O-])N1c1ccccc1` (stereo not drawn) [2a, 2-(3′-phenyl-4′(5H)-thiazolidinone)-quinoxaline-1,4-di-N-oxide], the “antimycobacterial activity (in words)” value [6] was “good antimycobacterial activity”, the MIC ([6]; MABA assay, read-out: MIC) was 6.25 µg/mL and the MIC [6, 15] was 6.25 µg/mL. The MIC [6, 16] was 18.5 µM, the IC50 [7] was 144 µg/mL (≈ 423 µM) and the MIC [1, 10] was 16 µg/mL (≈ 47.1 µM). For the same compound, the MIC [2, 11] was 32 µg/mL (≈ 94.3 µM), the MIC [3, 12] was 16 µg/mL (≈ 47.1 µM) and the MIC [4, 13] was 8 µg/mL (≈ 23.6 µM). The melting point was 245 to 248 °C.
With `O=C1CSC(c2c[n+]([O-])c3ccc(Cl)cc3[n+]2[O-])N1c1ccc(Cl)cc1` (stereo not drawn) [2z, 7-Cl-2-(3′-P-chlorophenyl-4′(5H)-thiazolidinone)-quinoxaline-1,4-di-N-oxide] the “antimycobacterial activity (in words)” value [6] was “good antimycobacterial activity”, the MIC [6, 15] was 1.56 µg/mL and the MIC [6, 16] was 3.85 µM. For the same compound, the IC50 [7] was 94.6 µg/mL (≈ 232 µM), the EC90 [9] was 0.92 µg/mL (≈ 2.25 µM) and the EC99 [9] was 3.93 µg/mL. For the same compound, the MIC [1, 10] was 4 µg/mL (≈ 9.8 µM), the MIC [2, 11] was 4 µg/mL (≈ 9.8 µM) and the MIC [3, 12] was 4 µg/mL (≈ 9.8 µM). It also gave an MIC [4, 13] of 4 µg/mL (≈ 9.8 µM), an MIC [5, 14] of 2 to 4 µg/mL (≈ 4.9 to 9.8 µM) and a melting point of 252 to 255 °C.
In the case of `O=C1CSC(c2c[n+]([O-])c3ccc(Cl)cc3[n+]2[O-])N1c1ccc(F)cc1` (stereo not drawn) [2y, 7-Cl-2-(3′-P-fluorophenyl-4′(5H)-thiazolidinone)-quinoxaline-1,4-di-N-oxide], the “antimycobacterial activity (in words)” value [6] was “good antimycobacterial activity”, the MIC [6, 15] was 1.56 µg/mL and the MIC [6, 16] was 3.99 µM. The IC50 [7] was 107 µg/mL (≈ 273 µM), the EC90 [9] was 1.33 µg/mL (≈ 3.39 µM) and the EC99 [9] was 4.58 µg/mL. For the same compound, the MIC [1, 10] was 2 µg/mL (≈ 5.1 µM), the MIC [2, 11] was 4 µg/mL (≈ 10.2 µM) and the MIC [3, 12] was 2 µg/mL (≈ 5.1 µM). It also gave an MIC [4, 13] of 4 µg/mL (≈ 10.2 µM), an MIC [5, 14] of 2 to 4 µg/mL (≈ 5.1 to 10.2 µM) and a melting point of 251 to 253 °C.
For `Cc1ccc(N2C(=O)CSC2c2c[n+]([O-])c3ccc(Cl)cc3[n+]2[O-])cc1` (stereo not drawn) [2w, 7-Cl-2-(3′-P-methylphenyl-4′(5H)-thiazolidinone)-quinoxaline-1,4-di-N-oxide], the MIC ([6]; MABA assay, read-out: MIC) was 6.25 µg/mL, the MIC [6, 15] was 6.25 µg/mL and the MIC [6, 16] was 16.1 µM. It also gave an IC50 [7] of 125 µg/mL (≈ 323 µM), an MIC [1, 10] of 8 µg/mL (≈ 20.6 µM) and an MIC [2, 11] of 8 µg/mL (≈ 20.6 µM). The MIC [3, 12] was 4 µg/mL (≈ 10.3 µM), the MIC [4, 13] was 4 µg/mL (≈ 10.3 µM) and the melting point was 250 to 252 °C.
In the case of `O=C1CSC(c2c[n+]([O-])c3ccc(F)cc3[n+]2[O-])N1c1ccc(Cl)cc1` (stereo not drawn) [2u, 7-F-2-(3′-P-chlorophenyl-4′(5H)-thiazolidinone)-quinoxaline-1,4-di-N-oxide], the “antimycobacterial activity (in words)” value [6] was “good antimycobacterial activity”, the MIC [6, 15] was 1.56 µg/mL and the MIC [6, 16] was 3.99 µM. The IC50 [7] was 91.2 µg/mL (≈ 233 µM), the EC90 [9] was 0.84 µg/mL (≈ 2.14 µM) and the EC99 [9] was 3.27 µg/mL. It also gave an MIC [1, 10] of 4 µg/mL (≈ 10.2 µM), an MIC [2, 11] of 2 µg/mL (≈ 5.1 µM) and an MIC [3, 12] of 4 µg/mL (≈ 10.2 µM). It also gave an MIC [4, 13] of 4 µg/mL (≈ 10.2 µM), an MIC [5, 14] of 2 to 4 µg/mL (≈ 5.1 to 10.2 µM) and a melting point of 249 to 252 °C.
